According to patent US9695155B2, “Herbicidal substituted pyrimidinyloxy benzene compounds” (E. I. DU PONT DE NEMOURS AND COMPANY, priority 2013, dated 2017):

How the values were obtained:
[1] = tested on: velvetleaf; assay: Test A preemergence; type: in vivo, Abutilon theophrasti
Outline: (§1)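 Compounds in non-phytotoxic solvent with surfactant applied as soil spray preemergence, or postemergence to plants 2-10 cm at one- to two-leaf stage, in loam/sand. After approximately 10 days in greenhouse, injury rated visually versus untreated controls, 0 (no effect) to 100 (complete control).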

[2] = tested on: corn; assay: Test A postemergence; type: in vivo, Zea mays
Outline: as §1

[3] = tested on: barnyardgrass; assay: Test A postemergence; type: in vivo, Echinochloa crus-galli
Outline: as §1

[4] = tested on: giant foxtail; assay: Test A postemergence; type: in vivo, Setaria faberii
Outline: as §1

[5] = tested on: sedge, umbrella; assay: Test B flooded paddy test; type: in vivo, Cyperus difformis; conditions: Flood, 250 g ai/ha; 0 to 100 scale where 0 is no effect and 100 is complete control
Outline: (§2)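 Greenhouse flooded-pot test: compounds dosed into 3 cm standing water over 2-leaf plants, flood held constant. Rated visually after 13–15 days on 0–100 (complete control = 100); a dash marks no test result.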

[6] = tested on: corn; assay: Test A preemergence; type: in vivo, Zea mays
Outline: as §1

[7] = tested on: morningglory; assay: Test A preemergence; type: in vivo, Ipomoea spp.
Outline: as §1

[8] = tested on: giant foxtail; assay: Test A preemergence; type: in vivo, Setaria faberii
Outline: as §1

[9] = tested on: morningglory; assay: Test A postemergence; type: in vivo, Ipomoea spp.
Outline: as §1

[10] = tested on: wheat; assay: Test A preemergence; type: in vivo, Triticum aestivum
Outline: as §1

[11] = tested on: wheat; assay: Test A postemergence; type: in vivo, Triticum aestivum
Outline: as §1

[12] = tested on: pigweed; assay: Test A preemergence; type: in vivo, Amaranthus retroflexus
Outline: as §1

[13] = tested on: velvetleaf; assay: Test A postemergence; type: in vivo, Abutilon theophrasti
Outline: as §1

[14] = tested on: large (Lg) crabgrass; assay: Test A postemergence; type: in vivo, Digitaria sanguinalis
Outline: as §1

[15] = tested on: rice; assay: Test B flooded paddy test; type: in vivo, Oryza sativa; conditions: Flood, 250 g ai/ha; 0 to 100 scale where 0 is no effect and 100 is complete control
Outline: as §2

[16] = tested on: barnyardgrass; assay: Test A preemergence; type: in vivo, Echinochloa crus-galli
Outline: as §1

[17] = tested on: Heteranthera limosa; assay: Test B flooded paddy test; type: in vivo; conditions: Flood, 250 g ai/ha; 0 to 100 scale where 0 is no effect and 100 is complete control
Outline: as §2

[18] = tested on: large (Lg) crabgrass; assay: Test A preemergence; type: in vivo, Digitaria sanguinalis
Outline: as §1

[19] = tested on: barnyardgrass; assay: Test B flooded paddy test; type: in vivo, Echinochloa crus-galli; conditions: Flood, 250 g ai/ha; 0 to 100 scale where 0 is no effect and 100 is complete control
Outline: as §2

[20] = tested on: pigweed; assay: Test A postemergence; type: in vivo, Amaranthus retroflexus
Outline: as §1

[21] = 125 g ai/ha, 0 to 100 scale where 0 is no effect and 100 is complete control
[22] = 500 g ai/ha, 0 to 100 scale, 0 no effect, 100 complete control, approx. 10 days
[23] = 500 g ai/ha, 0 to 100 scale, 0 no effect, 100 complete control
[24] = 500 g ai/ha, 0 to 100 scale where 0 is no effect and 100 is complete control
[25] = 125 g ai/ha, 0 to 100 scale, 0 no effect, 100 complete control

Cc1cnc(Oc2ccccc2-n2cc(Cl)cn2)nc1 [Compound 15]
Velvetleaf plant response rating [1, 21]: 60 | Velvetleaf plant response rating [1, 22]: 100 | Plant response rating, Corn [2, 21]: 0 | Plant response rating, Corn [2, 23]: 20 | Plant response rating, Barnyardgrass [3, 21]: 0 | Plant response rating, Barnyardgrass [3, 23]: 60 | Plant response rating, Foxtail, Giant [4, 21]: 10 | Plant response rating, Foxtail, Giant [4, 23]: 70 | Plant response rating, Sedge, Umbrella [5]: 85 | Corn plant response rating [6, 21]: 0 | Corn plant response rating [6, 22]: 0 | Morningglory plant response rating [7, 21]: 0 | Morningglory plant response rating [7, 22]: 0 | Foxtail, Giant plant response rating [8, 21]: 30 | Foxtail, Giant plant response rating [8, 22]: 100 | Plant response rating, Morningglory [9, 21]: 10 | Plant response rating, Morningglory [9, 23]: 20 | Wheat plant response rating [10, 21]: 0 | Wheat plant response rating [10, 22]: 0 | Plant response rating, Wheat [11, 21]: 0 | Plant response rating, Wheat [11, 23]: 10 | Pigweed plant response rating [12, 21]: 90 | Pigweed plant response rating [12, 22]: 100 | Plant response rating, Velvetleaf [13, 21]: 90 | Plant response rating, Velvetleaf [13, 23]: 100 | Plant response rating, Crabgrass, Large [14, 21]: 10 | Plant response rating, Crabgrass, Large [14, 23]: 60 | Plant response rating, Rice [15]: 20 | Barnyardgrass plant response rating [16, 21]: 20 | Barnyardgrass plant response rating [16, 22]: 100 | Plant response rating, Ducksalad [17]: 75 | Crabgrass, Large plant response rating [18, 21]: 40 | Crabgrass, Large plant response rating [18, 22]: 100 | Plant response rating, Barnyardgrass [19]: 20 | Plant response rating, Pigweed [20, 21]: 70 | Plant response rating, Pigweed [20, 23]: 100

Clc1cnc(Oc2cccc(-c3ncco3)c2-n2cc(Br)cn2)nc1 [Compound 287]
Velvetleaf plant response rating (0 to 100 scale) ([1]; 125 g ai/ha): 0 | Velvetleaf plant response rating [1, 24]: 0 | Plant response rating, Corn [2, 25]: 0 | Plant response rating, Corn [2, 24]: 0 | Plant response rating, Barnyardgrass [3, 25]: 0 | Plant response rating, Barnyardgrass [3, 24]: 0 | Plant response rating, Foxtail, Giant [4, 25]: 0 | Plant response rating, Foxtail, Giant [4, 24]: 0 | Plant response rating, Sedge, Umbrella [5]: 0 | Corn plant response rating (0 to 100 scale) ([6]; 125 g ai/ha): 0 | Corn plant response rating [6, 24]: 0 | Morningglory plant response rating (0 to 100 scale) ([7]; 125 g ai/ha): 0 | Morningglory plant response rating [7, 24]: 0 | Foxtail, Giant plant response rating (0 to 100 scale) ([8]; 125 g ai/ha): 0 | Foxtail, Giant plant response rating [8, 24]: 40 | Plant response rating, Morningglory [9, 25]: 10 | Plant response rating, Morningglory [9, 24]: 20 | Wheat plant response rating (0 to 100 scale) ([10]; 125 g ai/ha): 0 | Wheat plant response rating [10, 24]: 0 | Plant response rating, Wheat [11, 25]: 0 | Plant response rating, Wheat [11, 24]: 0 | Pigweed plant response rating (0 to 100 scale) ([12]; 125 g ai/ha): 0 | Pigweed plant response rating [12, 24]: 100 | Plant response rating, Velvetleaf [13, 25]: 10 | Plant response rating, Velvetleaf [13, 24]: 20 | Plant response rating, Crabgrass, Large [14, 25]: 10 | Plant response rating, Crabgrass, Large [14, 24]: 20 | Plant response rating, Rice [15]: 0 | Barnyardgrass plant response rating (0 to 100 scale, 0 is no effect, 100 is complete control) ([16]; 125 g ai/ha): 0 | Barnyardgrass plant response rating [16, 24]: 0 | Plant response rating, Ducksalad [17]: 0 | Crabgrass, Large plant response rating (0 to 100 scale) ([18]; 125 g ai/ha): 0 | Crabgrass, Large plant response rating [18, 24]: 70 | Plant response rating, Barnyardgrass [19]: 0 | Plant response rating, Pigweed [20, 25]: 30 | Plant response rating, Pigweed [20, 24]: 50

N#Cc1cnc(Oc2ccccc2-n2cc(Br)cn2)nc1 [Compound 233]
Velvetleaf plant response rating (0 to 100 scale) ([1]; 125 g ai/ha): 0 | Velvetleaf plant response rating [1, 24]: 0 | Corn plant response rating [2, 21]: 0 | Plant response rating, Corn [2, 24]: 0 | Barnyardgrass plant response rating [3, 21]: 0 | Plant response rating, Barnyardgrass [3, 24]: 20 | Foxtail, Giant plant response rating [4, 21]: 0 | Plant response rating, Foxtail, Giant [4, 24]: 20 | Plant response rating, Sedge, Umbrella [5]: 50 | Corn plant response rating (0 to 100 scale) ([6]; 125 g ai/ha): 0 | Corn plant response rating [6, 24]: 0 | Morningglory plant response rating (0 to 100 scale) ([7]; 125 g ai/ha): 0 | Morningglory plant response rating [7, 24]: 0 | Foxtail, Giant plant response rating (0 to 100 scale) ([8]; 125 g ai/ha): 0 | Foxtail, Giant plant response rating [8, 24]: 0 | Morningglory plant response rating [9, 21]: 0 | Plant response rating, Morningglory [9, 24]: 0 | Wheat plant response rating (0 to 100 scale) ([10]; 125 g ai/ha): 0 | Wheat plant response rating [10, 24]: 0 | Wheat plant response rating [11, 21]: 0 | Plant response rating, Wheat [11, 24]: 0 | Pigweed plant response rating (0 to 100 scale) ([12]; 125 g ai/ha): 0 | Pigweed plant response rating [12, 24]: 20 | Velvetleaf plant response rating [13, 21]: 0 | Plant response rating, Velvetleaf [13, 24]: 30 | Crabgrass, Large plant response rating [14, 21]: 0 | Plant response rating, Crabgrass, Large [14, 24]: 10 | Plant response rating, Rice [15]: 20 | Barnyardgrass plant response rating (0 to 100 scale, 0 is no effect, 100 is complete control) ([16]; 125 g ai/ha): 0 | Barnyardgrass plant response rating [16, 24]: 0 | Plant response rating, Ducksalad [17]: 50 | Crabgrass, Large plant response rating (0 to 100 scale) ([18]; 125 g ai/ha): 0 | Crabgrass, Large plant response rating [18, 24]: 10 | Plant response rating, Barnyardgrass [19]: 10 | Pigweed plant response rating [20, 21]: 20 | Plant response rating, Pigweed [20, 24]: 50

Clc1cnc(Oc2cc(Cl)ccc2-n2cccn2)nc1 [Compound 49]
Plant response rating, Velvetleaf [1, 21]: 0 | Velvetleaf plant response rating [1, 22]: 20 | Plant response rating, Corn [2, 21]: 0 | Plant response rating, Corn [2, 23]: 0 | Plant response rating, Barnyardgrass [3, 21]: 0 | Plant response rating, Barnyardgrass [3, 23]: 10 | Plant response rating, Foxtail, Giant [4, 21]: 0 | Plant response rating, Foxtail, Giant [4, 23]: 10 | Plant response rating, Sedge, Umbrella [5]: 0 | Plant response rating, Corn [6, 21]: 0 | Corn plant response rating [6, 22]: 0 | Plant response rating, Morningglory [7, 21]: 0 | Morningglory plant response rating [7, 22]: 0 | Plant response rating, Foxtail, Giant [8, 21]: 0 | Foxtail, Giant plant response rating [8, 22]: 10 | Plant response rating, Morningglory [9, 21]: 0 | Plant response rating, Morningglory [9, 23]: 20 | Plant response rating, Wheat [10, 21]: 0 | Wheat plant response rating [10, 22]: 0 | Plant response rating, Wheat [11, 21]: 0 | Plant response rating, Wheat [11, 23]: 0 | Plant response rating, Pigweed [12, 21]: 0 | Pigweed plant response rating [12, 22]: 0 | Plant response rating, Velvetleaf [13, 21]: 10 | Plant response rating, Velvetleaf [13, 23]: 30 | Plant response rating, Crabgrass, Large [14, 21]: 0 | Plant response rating, Crabgrass, Large [14, 23]: 10 | Plant response rating, Rice [15]: 0 | Plant response rating, Barnyardgrass [16, 21]: 0 | Barnyardgrass plant response rating [16, 22]: 0 | Plant response rating, Ducksalad [17]: 0 | Plant response rating, Crabgrass, Large [18, 21]: 0 | Crabgrass, Large plant response rating [18, 22]: 20 | Plant response rating, Barnyardgrass [19]: 0 | Plant response rating, Pigweed [20, 21]: 0 | Plant response rating, Pigweed [20, 23]: 40
